Results taken from US12398121B2 (Nuvation Bio Inc., priority 2018, dated 2025).
pIC50: −log10 of the molar value.

system: MCF-7 cells; assay: Cell proliferation assay (CellTiter Glo), MCF-7; assay type: cell-based; settings: Homo sapiens, MCF7, 168 h; cell growth inhibition, six or seven days total treatment
Protocol: IC50 values were calculated and graphed using the model “log(inhibitor) vs. response—Variable slope” included in GraphPad Prism 5 (San Diego, CA). The Ki values were further calculated using the equation below where [L] was the radioligand concentration (1 nM) using in this study. Kd value was 0.332 nM. Ki=IC50/(1+[L]/Kd) c. AR transactivation: Human AR cloned into a CMV vector backbone was used for the transactivation study. HEK-293 cells were plated at 80,000 cells per well of a 24 well plate in DME+5% csFBS. Twenty four hours later, the cells were transfected using Lipofectamine (Invitrogen, Carlsbad, CA) with 0.25 μg GRE-LUC, 0.01 μg CMV-LUC (renilla luciferase) and 25 ng of the AR in OPTIMEM medium. The cells were treated 24 hrs after transfection with various ligands (10^−12 to 10^−5 M final concentrations) and luciferase assay were performed 48 hours after transfection. Firefly values were normalized to renilla luciferase values and the values were represented as relative light units (RLU). Agonist and antagonist assays for the test article were performed in the absence and in the combination with 0.1 nM R1881, respectively. Data were represented as EC50 (for agonists) and IC50 (for antagonists) obtained from four parameter logistics curve. Cell culture and proliferation assays: LNCaP, PC-3, 22RV1, MCF-7, HT-29, and HCT-116 cells were procured from American Type Culture Collection (ATCC). Cells were cultured in medium recommended by the ATCC. Cell culture medium was obtained from Fisher scientific (Waltham, MA) and serum was obtained from Hyclone (San Angelo, TX).
Cells were plated at varying density in the respective growth medium in 96 well plates. […] The number of viable 22RV1 and HT-29 cells was measured using CellTiter Glo assay (CTG, Promega, Madison, WI) after three days of treatment. The other types of cancer cells were re-treated at three or four days and the number of viable cells was measured using CTG assay after a total treatment time of six or seven days. […] The number of viable cells is measured using CellTiter Glo assay (CTG, Promega, Madison, WI) or similar. […]

Row | SMILES | pIC50
1 | CN(CCCCCC(=O)N1CCN(C(=O)c2cc(Cc3n[nH]c(=O)c4ccccc34)ccc2F)CC1)CCOc1ccc(C(=O)c2c(-c3ccc(O)cc3)sc3cc(O)ccc23)cc1 [Compound 2.4, 4-(4-fluoro-3-(4-(6-((2-(4-(6-hydroxy-2-(4-hydroxyphenyl)benzo[b]thiophene-3-carbonyl)phenoxy)ethyl)(methyl)amino)hexanoyl)piperazine-1-carbonyl)benzyl)phthalazin-1(2H)-one] | 4.96
2 | O=C(c1ccc(OCCN2CCN(C(=O)c3cc(Cc4n[nH]c(=O)c5ccccc45)ccc3F)CC2)cc1)c1c(-c2ccc(O)cc2)sc2cc(O)ccc12 [Compound 2.13, 4-(4-fluoro-3-(4-(2-(4-(6-hydroxy-2-(4-hydroxyphenyl)benzo[b]thiophene-3-carbonyl)phenoxy)ethyl)piperazine-1-carbonyl)benzyl)phthalazin-1(2H)-one] | 5.44
3 | CCC(=C(c1ccc(O)cc1)c1ccc(OCCN2CCN(C(=O)c3cc(Cc4n[nH]c(=O)c5ccccc45)ccc3F)CC2)cc1)c1ccccc1 [Compound 2.14, 4-(4-fluoro-3-(4-(2-(4-(1-(4-hydroxyphenyl)-2-phenylbut-1-enyl)phenoxy)ethyl)piperazine-1-carbonyl)benzyl)pthalazin-1(2H)-one] | 5.03
